Consider 15 compounds from patent US8188102B2, “Amide derivative for inhibiting the growth of cancer cells” (Hanmi Holdings Co., Ltd., priority 2007, dated 2012).

The target in test [1] is EGFR T790M kinase (Homo sapiens, UniProt P00533, T790M). The test is described as follows: Inhibition of EGFR mutant enzyme (T790M). The following applies: read-out: IC50 (nM) T790M; EGFR T790M kinase.
In test [2] the test system is A431 skin cancer cell line. Description: Cancer cell growth inhibition, A431 (SRB). The conditions noted are these: Homo sapiens, A-431, 72 h, read-out: ID50 (nM) A431.
In test [3] the test system is SK-Br3 breast cancer cell line. The test is described as follows: Cancer cell growth inhibition, SK-Br3 (SRB). The conditions noted are these: Homo sapiens, SK-BR-3, 72 h, read-out: ID50 (nM) SK-Br3.
Test [4] has as its system H1975 lung cancer cell line. Description: Cancer cell growth inhibition, H1975 (celltiter). The following applies: Homo sapiens, NCI-H1975, 48 h, read-out: IC50 (nM) H1975.
Method: The medium was removed from each well of the 96-well plate.
In case of H1975, the cells were diluted with a culture medium to a concentration of 50,000 cells/ml. 100 μl of the diluted cell solution was added to each well of a 96-well plate, and, after 1 day, was washed with a mixture of RPMI, 0.1% FBS and 1% penicillin-streptomycin (PS), followed by replacement of the medium. The plate was allowed to be kept overnight and be treated to various concentrations under the same medium condition for 48 hrs. Similarly to an MTT assay, 15 μl of a celltiter one shot solution (Promega) was added to each well, which was incubated for 2 to 3 hrs, and, then, the absorbance at 490 nm was determined.
Test [5] deals with SW-620 colon/rectal cancer cell line. The test is described as follows: Cancer cell growth inhibition, SW-620 (SRB). The conditions noted are these: Homo sapiens, SW-620, 72 h, read-out: IC50 (nM) SW-620.

Sequence of EGFR T790M kinase (P00533 25-1210 T790M): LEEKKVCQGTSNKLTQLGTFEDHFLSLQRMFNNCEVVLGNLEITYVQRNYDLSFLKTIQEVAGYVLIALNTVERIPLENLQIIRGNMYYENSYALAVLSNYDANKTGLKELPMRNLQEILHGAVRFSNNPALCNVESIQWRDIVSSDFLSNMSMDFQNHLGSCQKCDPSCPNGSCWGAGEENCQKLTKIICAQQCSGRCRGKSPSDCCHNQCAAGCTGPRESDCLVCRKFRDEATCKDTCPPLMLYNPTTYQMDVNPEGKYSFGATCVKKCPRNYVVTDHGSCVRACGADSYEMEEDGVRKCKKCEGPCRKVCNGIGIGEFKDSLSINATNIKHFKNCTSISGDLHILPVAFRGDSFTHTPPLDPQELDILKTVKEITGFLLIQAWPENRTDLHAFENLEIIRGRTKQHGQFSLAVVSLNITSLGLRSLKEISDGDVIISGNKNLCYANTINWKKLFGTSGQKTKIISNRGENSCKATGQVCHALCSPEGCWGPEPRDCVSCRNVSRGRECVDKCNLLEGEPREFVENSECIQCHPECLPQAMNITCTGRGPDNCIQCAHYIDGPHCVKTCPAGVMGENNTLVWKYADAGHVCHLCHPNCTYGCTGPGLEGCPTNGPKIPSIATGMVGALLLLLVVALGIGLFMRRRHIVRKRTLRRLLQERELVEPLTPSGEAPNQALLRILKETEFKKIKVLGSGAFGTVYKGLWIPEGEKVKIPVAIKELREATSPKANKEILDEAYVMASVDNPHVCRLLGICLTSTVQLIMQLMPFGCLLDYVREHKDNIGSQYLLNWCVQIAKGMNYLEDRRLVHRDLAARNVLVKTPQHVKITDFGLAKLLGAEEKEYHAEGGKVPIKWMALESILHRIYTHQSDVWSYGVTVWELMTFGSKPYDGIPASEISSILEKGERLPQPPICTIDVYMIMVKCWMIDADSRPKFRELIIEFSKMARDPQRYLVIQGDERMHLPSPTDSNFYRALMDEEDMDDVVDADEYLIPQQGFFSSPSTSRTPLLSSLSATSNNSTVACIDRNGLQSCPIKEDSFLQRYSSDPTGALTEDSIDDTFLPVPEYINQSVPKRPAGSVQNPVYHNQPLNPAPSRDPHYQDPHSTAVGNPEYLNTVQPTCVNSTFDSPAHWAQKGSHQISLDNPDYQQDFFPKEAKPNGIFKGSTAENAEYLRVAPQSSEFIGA

Consider `C=CC(=O)N1CCC(Oc2cc3c(Nc4ccc(Br)c(C)c4)ncnc3cc2OC)CC1` [Example 39, 1-(4-(4-(4-bromo-3-methylphenylamino)-7-methoxyquinazolin-6-yloxy)piperidin-1-yl)pro-2-pen-1-one], for which the IC50 came to 7.6 nM in test [1], 6 nM in test [2], 9 nM in test [3] and 48 nM in test [4].
The matching figures for `C=CC(=O)N1CCC(Oc2cc3c(Nc4cccc(C)c4)ncnc3cc2OC)CC1` [Example 41, 1-(4-(4-(m-toluidino)-7-methoxyquinazolin-6-yloxy)piperidin-1-yl)pro-2-pen-1-one]: 9.3 nM, 1 nM, 2 nM and 236 nM.
For `C=CC(=O)N1CCC(Oc2cc3c(Nc4cccc(Br)c4)ncnc3cc2OC)CC1` [Example 42, 1-(4-(4-(3-bromophenylamino)-7-methoxyquinazolin-6-yloxy)piperidin-1-yl)pro-2-pen-1-one], in that order: 7.1 nM, 1 nM, 0.7 nM and 96 nM.
On to `C=CC(=O)N1CCC(Oc2cc3c(Nc4ccc(F)c(Cl)c4)ncnc3cc2OC)CC1` [Example 57, 1-(4-(4-(3-chloro-4-fluorophenylamino)-7-methoxyquinazolin-6-yloxy)piperidin-1-yl)pro-2-pen-1-one], for which the IC50 in test [2] was 17 nM; in test [3], 2 nM; in test [5], over 5000 nM; in test [4] it was 16 nM.
Turning to `C=CC(=O)N1CCC(Oc2cc3c(Nc4cccc(C(F)(F)F)c4)ncnc3cc2OC)CC1` [Example 58, 1-(4-(7-methoxy-4-(3-(trifluoromethyl)phenylamino)quinazolin-6-yloxy)piperidin-1-yl)pro-2-pen-1-one], the IC50 is 16.2 nM in test [1], 58 nM in test [2], 20 nM in test [3] and over 5000 nM in test [5].
Consider `C=CC(=O)N1CCC(Oc2cc3c(Nc4cccc(C=C)c4)ncnc3cc2OC)CC1` [Example 73, 1-(4-(7-methoxy-4-(3-vinylphenylamino)quinazolin-6-yloxy)piperidin-1-yl)pro-2-pen-1-one], for which the IC50 was 3 nM in test [1]; 1.9 nM in test [2]; 1.2 nM in test [3]; over 5000 nM in test [5]; 27 nM in test [4].
For `C=C(CN(C)C)C(=O)N1CC(Oc2cc3c(Nc4ccc(F)c(Cl)c4F)ncnc3cc2OC)C1` [Example 104, 1-(3-(4-(3-chloro-2,4-difluorophenylamino)-7-methoxyquinazolin-6-yloxy)azetidin-1-yl)-2-((dimethylamino)methyl)prop-2-en-1-one], in that order: 2 nM, 41 nM, 1.5 nM, over 5000 nM and 11 nM.
Consider `C=C(CN1CCOCC1)C(=O)N1CC(Oc2cc3c(Nc4ccc(F)c(Cl)c4F)ncnc3cc2OC)C1` [Example 105, 1-(3-(4-(3-chloro-2,4-difluorophenylamino)-7-methoxyquinazolin-6-yloxy)azetidin-1-yl)-2-(morpholinomethyl)prop-2-en-1-one], for which the IC50 in test [1] was 4 nM; in test [2] it was 1.5 nM; in test [3], 0.5 nM; in test [5] it was over 5000 nM; in test [4], 8 nM.
For `C=CC(=O)N1CC[C@H](Oc2cc3c(Nc4ccc(F)c(Cl)c4F)ncnc3cc2OC)C[C@H]1C(=O)NCCO` [Example 126, (2S,4S)-1-acryloyl-4-(4-(3-chloro-2,4-difluorophenylamino)-7-methoxyquinazolin-6-yloxy)-N-(2-hydroxyethyl)piperidin-2-carboxamide], in that order: 1.8 nM, 5.4 nM, 0.9 nM, over 5000 nM and 39 nM.
On to `C=CC(=O)N1CC[C@H](Oc2cc3c(Nc4ccc(F)c(Cl)c4F)ncnc3cc2OC)C[C@H]1C(=O)NCCOC` [Example 127, (2S,4S)-1-acryloyl-4-(4-(3-chloro-2,4-difluorophenylamino)-7-methoxyquinazolin-6-yloxy)-N-(2-methoxyethyl)piperidin-2-carboxamide], for which the IC50 in test [1] is 3.8 nM; in test [2] it was 3.4 nM; in test [3], 2.3 nM; in test [5], over 5000 nM; in test [4] it was 11 nM.
For `C=CC(=O)N1CC[C@H](Oc2cc3c(Nc4ccc(F)c(Cl)c4F)ncnc3cc2OC)C[C@H]1C(=O)NCCSC` [Example 128, (2S,4S)-1-acryloyl-4-(4-(3-chloro-2,4-difluorophenylamino)-7-methoxyquinazolin-6-yloxy)-N-(2-(methylthio)ethyl)piperidin-2-carboxamide], in that order: 1.4 nM, 2.4 nM, 5 nM, over 5000 nM and 5 nM.
On to `C=CC(=O)N1CC[C@H](Oc2cc3c(Nc4ccc(F)c(Cl)c4F)ncnc3cc2OC)C[C@H]1C(=O)NCCS(C)(=O)=O` [Example 129, (2S,4S)-1-acryloyl-4-(4-(3-chloro-2,4-difluorophenylamino)-7-methoxyquinazolin-6-yloxy)-N-(2-(methylsulfonyl)ethyl)piperidin-2-carboxamide], for which the IC50 in test [1] worked out at 3 nM; in test [2] it was 2.2 nM; in test [3] it was 0.6 nM; in test [4], 50.4 nM.
As to `C=CC(=O)N1CC[C@H](Oc2cc3c(Nc4ccc(F)c(Cl)c4F)ncnc3cc2OC)C[C@H]1C(=O)NCCN(C)C` [Example 130, (2S,4S)-1-acryloyl-4-(4-(3-chloro-2,4-difluorophenylamino)-7-methoxyquinazolin-6-yloxy)-N-(2-(dimethylamino)ethyl)piperidin-2-carboxamide], the IC50 is 6.6 nM in test [1]; 5.7 nM in test [2]; 0.9 nM in test [3]; over 5000 nM in test [5]; 30 nM in test [4].
For `C=CC(=O)N1CC[C@@H](Oc2cc3c(Nc4ccc(F)c(Cl)c4F)ncnc3cc2OC)C[C@@H]1C(=O)NC` [Example 136, (2R,4R)-1-acryloyl-4-(4-(3-chloro-2,4-difluorophenylamino)-7-methoxyquinazolin-6-yloxy)-N-methylpiperidin-2-carboxamide], in that order: 0.9 nM, 2.9 nM, 0.2 nM, over 5000 nM and 2.6 nM.
In the case of `C=CC(=O)N1CC[C@@H](Oc2cc3c(Nc4ccc(Cl)c(Cl)c4F)ncnc3cc2OC)C[C@@H]1C(N)=O` [Example 139, (2R,4R)-1-acryloyl-4-(4-(3,4-dichloro-2-fluorophenylamino)-7-methoxyquinazolin-6-yloxy)piperidin-2-carboxamide], the IC50 in test [2] is 0.8 nM; in test [3], 1.1 nM; in test [5], over 5000 nM; in test [4], 1.1 nM.
